{"source": "patent US9492471B2", "about": "“Methods of treating a disease or disorder associated with Bruton'S Tyrosine Kinase” (Celgene Avilomics Research, Inc., priority 2013, dated 2016)", "test_in_all_cases": "HotSpot kinase profiling", "type_in_all_cases": "biochemical", "key": {"CAMK2d": {"biological_target": "T1, CAMK2d (Homo sapiens, UniProt Q13557)", "T1 construct": "purchased Reaction Biology Corp", "T1 sequence (Q13557 whole entry)": "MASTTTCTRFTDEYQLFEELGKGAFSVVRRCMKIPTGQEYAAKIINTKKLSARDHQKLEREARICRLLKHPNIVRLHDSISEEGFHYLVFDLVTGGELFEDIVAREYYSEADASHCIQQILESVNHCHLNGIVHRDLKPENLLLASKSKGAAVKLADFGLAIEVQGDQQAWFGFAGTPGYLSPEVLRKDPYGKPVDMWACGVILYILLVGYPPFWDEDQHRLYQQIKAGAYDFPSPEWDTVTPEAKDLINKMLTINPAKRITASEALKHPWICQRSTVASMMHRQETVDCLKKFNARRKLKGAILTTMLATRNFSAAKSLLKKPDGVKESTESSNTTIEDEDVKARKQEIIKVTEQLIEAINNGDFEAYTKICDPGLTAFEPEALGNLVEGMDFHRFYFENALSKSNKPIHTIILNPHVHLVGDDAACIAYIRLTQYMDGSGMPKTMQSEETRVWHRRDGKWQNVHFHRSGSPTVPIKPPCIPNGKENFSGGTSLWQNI", "summary_of_the_method": "(§1)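 Activity is measured by radiolabel transfer captured on P81 filters after a 2 h room-temperature reaction of kinase, substrate and cofactors. Values are percent inhibition against DMSO.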"}, "CLK4": {"biological_target": "T2, CLK4 (Homo sapiens, UniProt Q9HAZ1)", "T2 construct": "purchased Reaction Biology Corp", "T2 sequence (Q9HAZ1 whole entry)": "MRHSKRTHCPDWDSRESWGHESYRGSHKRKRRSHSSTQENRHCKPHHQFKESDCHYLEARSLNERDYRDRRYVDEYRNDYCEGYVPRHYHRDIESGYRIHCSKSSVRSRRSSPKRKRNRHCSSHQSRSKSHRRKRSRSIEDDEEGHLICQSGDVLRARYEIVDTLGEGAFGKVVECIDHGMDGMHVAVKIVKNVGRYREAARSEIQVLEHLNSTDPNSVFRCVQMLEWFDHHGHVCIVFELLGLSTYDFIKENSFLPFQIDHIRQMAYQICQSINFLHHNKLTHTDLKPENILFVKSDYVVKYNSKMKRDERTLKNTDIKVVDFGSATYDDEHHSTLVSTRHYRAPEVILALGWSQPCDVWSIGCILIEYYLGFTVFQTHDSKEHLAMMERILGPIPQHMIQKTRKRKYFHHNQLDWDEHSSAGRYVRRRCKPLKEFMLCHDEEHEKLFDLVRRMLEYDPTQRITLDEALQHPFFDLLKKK", "summary_of_the_method": "as §1"}, "EPHA5": {"biological_target": "T3, EPHA5 (Homo sapiens, UniProt P54756)", "T3 construct": "purchased Reaction Biology Corp", "summary_of_the_method": "as §1"}, "EPHA6": {"biological_target": "T4, EPHA6 (Homo sapiens, UniProt Q9UF33)", "T4 construct": "purchased Reaction Biology Corp", "T4 sequence (Q9UF33 23-1036)": "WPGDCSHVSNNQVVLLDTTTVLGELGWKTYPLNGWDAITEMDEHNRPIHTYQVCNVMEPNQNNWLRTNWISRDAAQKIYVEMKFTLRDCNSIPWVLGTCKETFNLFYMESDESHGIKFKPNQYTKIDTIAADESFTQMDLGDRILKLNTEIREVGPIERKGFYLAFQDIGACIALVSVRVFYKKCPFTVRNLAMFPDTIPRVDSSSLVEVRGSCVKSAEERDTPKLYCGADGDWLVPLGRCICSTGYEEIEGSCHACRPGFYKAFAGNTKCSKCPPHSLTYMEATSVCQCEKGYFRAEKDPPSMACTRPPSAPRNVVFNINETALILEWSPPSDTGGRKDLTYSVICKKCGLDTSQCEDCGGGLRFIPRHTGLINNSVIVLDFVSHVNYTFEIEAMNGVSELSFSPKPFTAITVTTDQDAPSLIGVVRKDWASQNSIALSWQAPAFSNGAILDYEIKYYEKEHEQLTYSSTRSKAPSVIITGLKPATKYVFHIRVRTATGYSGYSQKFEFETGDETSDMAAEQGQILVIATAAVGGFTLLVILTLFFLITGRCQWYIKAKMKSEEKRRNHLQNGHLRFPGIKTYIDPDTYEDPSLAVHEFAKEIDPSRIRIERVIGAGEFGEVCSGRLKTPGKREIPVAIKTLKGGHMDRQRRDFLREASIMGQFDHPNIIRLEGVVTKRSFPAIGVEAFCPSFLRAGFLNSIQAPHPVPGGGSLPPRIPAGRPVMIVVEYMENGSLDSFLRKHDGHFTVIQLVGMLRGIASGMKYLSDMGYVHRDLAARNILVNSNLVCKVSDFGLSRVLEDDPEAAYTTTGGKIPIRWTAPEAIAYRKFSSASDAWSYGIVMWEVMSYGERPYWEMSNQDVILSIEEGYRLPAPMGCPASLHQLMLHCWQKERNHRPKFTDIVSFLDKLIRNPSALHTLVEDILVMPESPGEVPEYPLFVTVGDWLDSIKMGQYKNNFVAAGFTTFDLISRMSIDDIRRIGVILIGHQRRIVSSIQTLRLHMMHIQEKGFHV", "summary_of_the_method": "as §1"}, "GRK6": {"biological_target": "T5, GRK6 (Homo sapiens, UniProt P43250)", "T5 construct": "purchased Reaction Biology Corp", "T5 sequence (P43250 whole entry)": "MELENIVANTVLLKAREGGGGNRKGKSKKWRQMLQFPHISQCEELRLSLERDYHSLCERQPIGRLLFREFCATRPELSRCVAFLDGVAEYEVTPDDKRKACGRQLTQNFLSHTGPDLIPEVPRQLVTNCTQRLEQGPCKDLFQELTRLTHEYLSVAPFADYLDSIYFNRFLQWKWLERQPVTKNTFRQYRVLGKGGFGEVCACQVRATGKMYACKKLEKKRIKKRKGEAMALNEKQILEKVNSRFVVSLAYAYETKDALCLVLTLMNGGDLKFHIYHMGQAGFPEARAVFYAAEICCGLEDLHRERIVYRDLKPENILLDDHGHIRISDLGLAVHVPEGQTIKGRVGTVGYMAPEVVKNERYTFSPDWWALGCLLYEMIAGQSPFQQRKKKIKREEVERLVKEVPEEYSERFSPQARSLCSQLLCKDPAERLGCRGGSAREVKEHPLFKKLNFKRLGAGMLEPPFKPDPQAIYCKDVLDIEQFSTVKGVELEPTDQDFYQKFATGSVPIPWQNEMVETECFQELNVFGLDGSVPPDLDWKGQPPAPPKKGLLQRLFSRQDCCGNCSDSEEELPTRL", "summary_of_the_method": "as §1"}, "LYN": {"biological_target": "T6, LYN (Homo sapiens, UniProt P07948)", "T6 construct": "purchased Reaction Biology Corp", "T6 sequence (P07948 whole entry)": "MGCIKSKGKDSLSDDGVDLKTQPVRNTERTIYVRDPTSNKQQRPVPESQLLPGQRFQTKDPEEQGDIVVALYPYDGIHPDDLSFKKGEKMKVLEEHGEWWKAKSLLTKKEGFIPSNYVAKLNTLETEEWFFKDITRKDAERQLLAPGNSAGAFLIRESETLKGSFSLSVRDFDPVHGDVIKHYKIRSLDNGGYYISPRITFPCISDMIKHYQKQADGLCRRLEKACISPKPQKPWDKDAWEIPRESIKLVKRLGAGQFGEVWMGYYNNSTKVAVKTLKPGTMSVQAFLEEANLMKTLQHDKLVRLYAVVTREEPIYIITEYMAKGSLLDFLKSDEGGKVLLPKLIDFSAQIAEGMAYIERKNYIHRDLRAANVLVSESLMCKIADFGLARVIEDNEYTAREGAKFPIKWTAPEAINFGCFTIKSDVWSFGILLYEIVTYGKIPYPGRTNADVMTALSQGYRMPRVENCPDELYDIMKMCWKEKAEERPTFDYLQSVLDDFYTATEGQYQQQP", "summary_of_the_method": "as §1"}, "LYN B": {"biological_target": "T7, LYN B (Homo sapiens, UniProt P07948)", "T7 construct": "purchased Reaction Biology Corp", "T7 sequence (P07948 1-491 isoform P07948-2)": "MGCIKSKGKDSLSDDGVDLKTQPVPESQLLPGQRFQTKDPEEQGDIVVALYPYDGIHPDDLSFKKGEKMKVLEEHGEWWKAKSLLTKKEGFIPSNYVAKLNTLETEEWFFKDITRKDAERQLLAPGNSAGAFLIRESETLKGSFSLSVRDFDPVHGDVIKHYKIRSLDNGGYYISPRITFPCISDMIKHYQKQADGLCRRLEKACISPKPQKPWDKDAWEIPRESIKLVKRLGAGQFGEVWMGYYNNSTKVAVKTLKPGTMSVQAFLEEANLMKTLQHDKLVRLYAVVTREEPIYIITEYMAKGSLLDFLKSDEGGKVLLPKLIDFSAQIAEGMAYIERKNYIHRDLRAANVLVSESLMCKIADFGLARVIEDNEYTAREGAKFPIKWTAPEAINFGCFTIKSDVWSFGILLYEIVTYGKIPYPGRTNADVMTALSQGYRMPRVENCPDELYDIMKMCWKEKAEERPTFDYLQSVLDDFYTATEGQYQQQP", "summary_of_the_method": "as §1"}, "NEK7": {"biological_target": "T8, NEK7 (Homo sapiens, UniProt Q8TDX7)", "T8 construct": "purchased Reaction Biology Corp", "T8 sequence (Q8TDX7 whole entry)": "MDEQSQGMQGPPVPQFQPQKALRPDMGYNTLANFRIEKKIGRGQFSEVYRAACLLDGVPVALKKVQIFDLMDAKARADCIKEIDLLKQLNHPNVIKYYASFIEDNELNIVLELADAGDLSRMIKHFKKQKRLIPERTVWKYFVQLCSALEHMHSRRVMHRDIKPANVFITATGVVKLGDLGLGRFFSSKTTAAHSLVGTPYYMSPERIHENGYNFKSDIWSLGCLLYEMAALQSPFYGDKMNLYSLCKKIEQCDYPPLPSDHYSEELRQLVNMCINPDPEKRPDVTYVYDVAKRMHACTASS", "summary_of_the_method": "as §1"}, "ROCK1": {"biological_target": "T9, ROCK1 (Homo sapiens, UniProt Q13464)", "T9 construct": "purchased Reaction Biology Corp", "T9 sequence (Q13464 whole entry)": "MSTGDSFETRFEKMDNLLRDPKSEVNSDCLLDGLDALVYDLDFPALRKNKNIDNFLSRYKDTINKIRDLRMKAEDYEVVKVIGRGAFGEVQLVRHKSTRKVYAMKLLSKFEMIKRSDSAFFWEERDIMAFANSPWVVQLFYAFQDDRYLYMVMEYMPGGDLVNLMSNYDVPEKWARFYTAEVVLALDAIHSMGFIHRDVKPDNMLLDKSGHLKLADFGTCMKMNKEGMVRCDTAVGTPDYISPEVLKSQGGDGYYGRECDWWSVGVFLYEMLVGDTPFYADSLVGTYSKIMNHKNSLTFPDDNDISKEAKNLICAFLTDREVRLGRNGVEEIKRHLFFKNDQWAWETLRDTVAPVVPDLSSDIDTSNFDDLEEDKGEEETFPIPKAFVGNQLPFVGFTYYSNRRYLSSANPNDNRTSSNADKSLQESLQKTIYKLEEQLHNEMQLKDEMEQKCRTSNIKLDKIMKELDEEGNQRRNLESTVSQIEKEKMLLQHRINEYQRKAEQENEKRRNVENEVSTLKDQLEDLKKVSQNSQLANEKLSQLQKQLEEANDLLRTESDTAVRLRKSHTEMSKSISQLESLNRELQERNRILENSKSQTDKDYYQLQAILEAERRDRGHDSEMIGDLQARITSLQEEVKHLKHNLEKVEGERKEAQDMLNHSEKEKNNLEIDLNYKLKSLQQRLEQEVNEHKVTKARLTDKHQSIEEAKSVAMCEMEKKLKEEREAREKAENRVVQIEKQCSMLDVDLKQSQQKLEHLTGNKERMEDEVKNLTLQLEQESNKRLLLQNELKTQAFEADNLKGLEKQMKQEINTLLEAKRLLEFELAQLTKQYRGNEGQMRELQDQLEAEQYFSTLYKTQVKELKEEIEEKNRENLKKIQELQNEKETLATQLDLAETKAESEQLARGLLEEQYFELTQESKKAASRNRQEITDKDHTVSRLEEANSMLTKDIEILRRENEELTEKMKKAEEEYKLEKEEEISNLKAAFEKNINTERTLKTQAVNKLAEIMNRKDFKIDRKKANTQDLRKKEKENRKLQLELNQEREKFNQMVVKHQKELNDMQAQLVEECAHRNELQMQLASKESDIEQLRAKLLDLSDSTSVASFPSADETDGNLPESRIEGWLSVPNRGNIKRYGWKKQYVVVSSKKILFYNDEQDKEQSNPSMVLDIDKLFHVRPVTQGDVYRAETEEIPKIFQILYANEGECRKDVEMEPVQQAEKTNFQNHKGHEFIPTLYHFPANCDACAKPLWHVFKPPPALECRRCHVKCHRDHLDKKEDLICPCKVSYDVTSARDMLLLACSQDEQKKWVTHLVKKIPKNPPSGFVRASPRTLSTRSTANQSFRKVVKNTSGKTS", "summary_of_the_method": "as §1"}, "WEE1": {"biological_target": "T10, WEE1 (Homo sapiens, UniProt P30291)", "T10 construct": "purchased Reaction Biology Corp", "T10 sequence (P30291 whole entry)": "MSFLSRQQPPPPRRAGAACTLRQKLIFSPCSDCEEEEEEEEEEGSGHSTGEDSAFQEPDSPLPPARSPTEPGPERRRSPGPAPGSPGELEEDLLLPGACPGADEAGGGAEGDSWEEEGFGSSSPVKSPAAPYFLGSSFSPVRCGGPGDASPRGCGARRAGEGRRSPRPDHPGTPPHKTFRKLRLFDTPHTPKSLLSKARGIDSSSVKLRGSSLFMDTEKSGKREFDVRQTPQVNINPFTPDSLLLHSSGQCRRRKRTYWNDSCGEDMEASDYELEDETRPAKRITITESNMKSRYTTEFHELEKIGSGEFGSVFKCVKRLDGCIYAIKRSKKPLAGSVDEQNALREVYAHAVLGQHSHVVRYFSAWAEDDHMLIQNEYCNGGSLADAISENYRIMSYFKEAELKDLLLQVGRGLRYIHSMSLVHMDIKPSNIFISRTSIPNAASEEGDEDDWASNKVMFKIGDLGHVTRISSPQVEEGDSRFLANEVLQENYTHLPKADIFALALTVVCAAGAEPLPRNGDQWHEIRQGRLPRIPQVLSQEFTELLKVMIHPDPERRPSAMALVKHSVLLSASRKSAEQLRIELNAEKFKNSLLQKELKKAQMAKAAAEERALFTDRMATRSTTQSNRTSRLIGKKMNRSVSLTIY", "summary_of_the_method": "as §1"}, "[1]": {"conditions": "read-out: % Enzyme Activity (relative to DMSO controls) Run 1"}, "[2]": {"conditions": "read-out: % Enzyme Activity (relative to DMSO controls) Run 2"}}, "note": "Where two headings read alike, the source gives them in different places."}
{"smiles": "C=CC(=O)Nc1cccc(Nc2nc(Nc3ccc(OCCOC)c(F)c3)ncc2F)c1", "note": "[Compound 2]", "values": [{"measurement": "inhibition at 3 µM", "setting": "CAMK2d", "result": -23.3, "unit": "%"}, {"measurement": "remaining activity at 3 µM", "setting": "CAMK2d; [1]", "result": 124, "unit": "%"}, {"measurement": "remaining activity at 3 µM", "setting": "CAMK2d; [2]", "result": 123, "unit": "%"}, {"measurement": "inhibition at 3 µM", "setting": "CLK4", "result": 44.3, "unit": "%"}, {"measurement": "remaining activity at 3 µM", "setting": "CLK4; [1]", "result": 57.4, "unit": "%"}, {"measurement": "remaining activity at 3 µM", "setting": "CLK4; [2]", "result": 53.9, "unit": "%"}, {"measurement": "inhibition at 3 µM", "setting": "EPHA5", "result": 8.66, "unit": "%"}, {"measurement": "remaining activity at 3 µM", "setting": "EPHA5; [1]", "result": 89.1, "unit": "%"}, {"measurement": "remaining activity at 3 µM", "setting": "EPHA5; [2]", "result": 93.6, "unit": "%"}, {"measurement": "inhibition at 3 µM", "setting": "EPHA6", "result": 1.24, "unit": "%"}, {"measurement": "remaining activity at 3 µM", "setting": "EPHA6; [1]", "result": 95.5, "unit": "%"}, {"measurement": "remaining activity at 3 µM", "setting": "EPHA6; [2]", "result": 102, "unit": "%"}, {"measurement": "inhibition at 3 µM", "setting": "GRK6", "result": -3.03, "unit": "%"}, {"measurement": "remaining activity at 3 µM", "setting": "GRK6; [1]", "result": 102, "unit": "%"}, {"measurement": "remaining activity at 3 µM", "setting": "GRK6; [2]", "result": 104, "unit": "%"}, {"measurement": "inhibition at 3 µM", "setting": "LYN", "result": 27.5, "unit": "%"}, {"measurement": "remaining activity at 3 µM", "setting": "LYN; [1]", "result": 71.7, "unit": "%"}, {"measurement": "remaining activity at 3 µM", "setting": "LYN; [2]", "result": 73.2, "unit": "%"}, {"measurement": "inhibition at 3 µM", "setting": "LYN B", "result": 5.7, "unit": "%"}, {"measurement": "remaining activity at 3 µM", "setting": "LYN B; [1]", "result": 92.9, "unit": "%"}, {"measurement": "remaining activity at 3 µM", "setting": "LYN B; [2]", "result": 95.7, "unit": "%"}, {"measurement": "inhibition at 3 µM", "setting": "NEK7", "result": 0.68, "unit": "%"}, {"measurement": "remaining activity at 3 µM", "setting": "NEK7; [1]", "result": 98.3, "unit": "%"}, {"measurement": "remaining activity at 3 µM", "setting": "NEK7; [2]", "result": 100, "unit": "%"}, {"measurement": "inhibition at 3 µM", "setting": "ROCK1", "result": -6.39, "unit": "%"}, {"measurement": "remaining activity at 3 µM", "setting": "ROCK1; [1]", "result": 108, "unit": "%"}, {"measurement": "remaining activity at 3 µM", "setting": "ROCK1; [2]", "result": 105, "unit": "%"}, {"measurement": "inhibition at 3 µM", "setting": "WEE1", "result": 26, "unit": "%"}, {"measurement": "remaining activity at 3 µM", "setting": "WEE1; [1]", "result": 73.1, "unit": "%"}, {"measurement": "remaining activity at 3 µM", "setting": "WEE1; [2]", "result": 74.9, "unit": "%"}]}
